According to ChEMBL document CHEMBL1149418, “Intermolecular interactions in the crystal structures of potential HIV-1 integrase inhibitors” (Bioorg Med Chem Lett, 2006):

target: Human immunodeficiency virus type 1 integrase (Human immunodeficiency virus 1, UniProt Q7ZJM1); assay: Antiviral activity against HIV1 integrase
Sequence (Q7ZJM1 whole entry): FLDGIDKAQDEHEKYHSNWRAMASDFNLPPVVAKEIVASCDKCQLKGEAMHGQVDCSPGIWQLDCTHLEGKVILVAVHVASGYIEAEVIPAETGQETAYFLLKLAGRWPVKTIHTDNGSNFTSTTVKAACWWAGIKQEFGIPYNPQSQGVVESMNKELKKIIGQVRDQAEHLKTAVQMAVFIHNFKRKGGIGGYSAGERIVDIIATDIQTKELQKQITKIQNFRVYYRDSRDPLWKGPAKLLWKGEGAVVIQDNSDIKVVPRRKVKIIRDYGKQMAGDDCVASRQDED

SMILES | IC50
Oc1cccc2ccc(/C=C/c3cccc(Cl)c3)nc12 | 230 µM
Cc1ccc2c(N=O)ccc(O)c2n1 | > 333 µM
O=C(O)c1ccc2ccc(/C=C/c3cccc(Cl)c3)nc2c1 | 230 µM
COC(Nc1cc(Cl)c([N+](=O)[O-])cc1Cl)c1ccc2cccc(O)c2n1 (centres undefined) | 230 µM
